According to patent US11208412B2 (DAEGU-GYEONGBUK MEDICAL INNOVATION FOUNDATION, priority 2017, dated 2021):

How the values were obtained:
Experiment in all cases: Kinase selectivity, DiscoverX scanMAX Kinase assay panel (% control)
Type in all cases: binding
[1] = target: T1, kinases of the scanMAX Kinase assay panel (Homo sapiens, UniProt O94804); conditions: LOK; 1 uM
T1 construct: purchased DiscoverX Co. (contract measurement) scanMAX Kinase assay panel
In short: (§1)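 Compounds tested at 1 uM against the scanMAX kinase panel. Signal expressed as % control = (compound − positive control)/(DMSO negative control − positive control) × 100, where positive control = 0% and DMSO = 100%; below 35% counted as activity on that kinase.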

[2] = target: T2, kinases of the scanMAX Kinase assay panel (Homo sapiens, UniProt O95382); conditions: ASK2; 1 uM
T2 construct: purchased DiscoverX Co. (contract measurement) scanMAX Kinase assay panel
T2 sequence (O95382 1-1288): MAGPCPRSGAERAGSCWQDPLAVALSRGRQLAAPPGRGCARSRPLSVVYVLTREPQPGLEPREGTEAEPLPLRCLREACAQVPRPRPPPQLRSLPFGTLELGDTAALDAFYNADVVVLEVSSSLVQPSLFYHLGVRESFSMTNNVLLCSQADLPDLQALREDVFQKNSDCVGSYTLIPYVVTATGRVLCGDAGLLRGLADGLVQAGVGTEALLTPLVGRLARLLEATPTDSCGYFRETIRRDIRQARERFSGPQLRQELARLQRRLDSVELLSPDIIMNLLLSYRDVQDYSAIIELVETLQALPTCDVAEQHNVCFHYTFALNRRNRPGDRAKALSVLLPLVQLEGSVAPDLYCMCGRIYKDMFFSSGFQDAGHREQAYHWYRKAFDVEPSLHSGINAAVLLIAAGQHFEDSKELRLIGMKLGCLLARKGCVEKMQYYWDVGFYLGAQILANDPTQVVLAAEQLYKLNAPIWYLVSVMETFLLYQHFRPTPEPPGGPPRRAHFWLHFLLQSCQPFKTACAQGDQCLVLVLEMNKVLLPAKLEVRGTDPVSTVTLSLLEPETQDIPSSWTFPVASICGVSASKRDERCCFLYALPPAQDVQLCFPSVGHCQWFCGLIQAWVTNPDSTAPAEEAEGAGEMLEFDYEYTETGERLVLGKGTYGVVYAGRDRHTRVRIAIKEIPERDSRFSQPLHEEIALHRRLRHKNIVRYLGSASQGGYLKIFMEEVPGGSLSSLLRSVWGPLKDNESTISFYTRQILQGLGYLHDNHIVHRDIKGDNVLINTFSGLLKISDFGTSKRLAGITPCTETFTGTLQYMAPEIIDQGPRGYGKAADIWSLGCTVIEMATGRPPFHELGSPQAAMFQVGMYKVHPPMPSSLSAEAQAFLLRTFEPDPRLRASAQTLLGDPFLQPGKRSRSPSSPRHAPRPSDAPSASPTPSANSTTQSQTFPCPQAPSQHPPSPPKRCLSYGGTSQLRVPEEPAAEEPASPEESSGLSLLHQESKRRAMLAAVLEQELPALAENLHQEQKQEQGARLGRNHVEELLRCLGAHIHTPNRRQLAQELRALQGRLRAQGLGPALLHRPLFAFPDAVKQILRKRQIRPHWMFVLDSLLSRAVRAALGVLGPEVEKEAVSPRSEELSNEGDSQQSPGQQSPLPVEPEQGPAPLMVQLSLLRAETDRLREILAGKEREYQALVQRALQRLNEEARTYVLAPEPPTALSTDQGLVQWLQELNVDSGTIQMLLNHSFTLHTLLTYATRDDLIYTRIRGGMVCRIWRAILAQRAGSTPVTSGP
In short: as §1

[3] = target: T3, kinases of the scanMAX Kinase assay panel (Homo sapiens, UniProt P00519, Q252H); conditions: 1 uM
T3 construct: purchased DiscoverX Co. (contract measurement) scanMAX Kinase assay panel
In short: as §1

[4] = target: T4, kinases of the scanMAX Kinase assay panel (Homo sapiens, UniProt P11309); conditions: PIM1; 1 uM
T4 construct: purchased DiscoverX Co. (contract measurement) scanMAX Kinase assay panel
T4 sequence (P11309 whole entry): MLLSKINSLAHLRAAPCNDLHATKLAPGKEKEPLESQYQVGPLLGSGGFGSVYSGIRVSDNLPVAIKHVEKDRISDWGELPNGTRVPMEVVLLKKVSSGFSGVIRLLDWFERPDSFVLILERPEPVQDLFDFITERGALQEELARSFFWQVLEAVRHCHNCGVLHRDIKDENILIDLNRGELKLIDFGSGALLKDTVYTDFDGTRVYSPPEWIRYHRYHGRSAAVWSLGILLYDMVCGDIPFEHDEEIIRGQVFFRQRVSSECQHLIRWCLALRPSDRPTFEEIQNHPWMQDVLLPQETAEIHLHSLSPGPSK
In short: as §1

[5] = target: T5, kinases of the scanMAX Kinase assay panel (Homo sapiens, UniProt P14616); conditions: INSRR; 1 uM
T5 construct: purchased DiscoverX Co. (contract measurement) scanMAX Kinase assay panel
In short: as §1

[6] = target: T6, kinases of the scanMAX Kinase assay panel (Homo sapiens, UniProt P16234); conditions: PDGFRA; 1 uM
T6 construct: purchased DiscoverX Co. (contract measurement) scanMAX Kinase assay panel
In short: as §1

[7] = target: T7, kinases of the scanMAX Kinase assay panel (Homo sapiens, UniProt P31152); conditions: ERK4; 1 uM
T7 construct: purchased DiscoverX Co. (contract measurement) scanMAX Kinase assay panel
T7 sequence (P31152 whole entry): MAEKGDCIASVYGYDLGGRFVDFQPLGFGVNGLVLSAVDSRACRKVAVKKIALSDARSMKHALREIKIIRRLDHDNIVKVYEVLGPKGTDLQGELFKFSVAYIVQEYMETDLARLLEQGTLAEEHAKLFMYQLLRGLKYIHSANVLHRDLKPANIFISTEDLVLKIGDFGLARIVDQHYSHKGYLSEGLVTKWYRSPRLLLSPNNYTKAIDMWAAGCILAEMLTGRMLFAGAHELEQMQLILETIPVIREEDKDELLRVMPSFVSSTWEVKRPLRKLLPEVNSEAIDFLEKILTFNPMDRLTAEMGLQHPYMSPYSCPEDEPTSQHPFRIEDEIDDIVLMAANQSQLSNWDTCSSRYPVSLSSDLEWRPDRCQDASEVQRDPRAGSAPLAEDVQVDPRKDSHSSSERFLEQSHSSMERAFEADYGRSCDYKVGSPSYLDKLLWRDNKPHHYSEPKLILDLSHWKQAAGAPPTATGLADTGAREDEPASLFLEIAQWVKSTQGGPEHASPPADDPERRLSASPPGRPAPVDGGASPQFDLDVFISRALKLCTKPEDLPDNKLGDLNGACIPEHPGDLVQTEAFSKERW
In short: as §1

[8] = target: T8, kinases of the scanMAX Kinase assay panel (Homo sapiens, UniProt P51957); conditions: NEK4; 1 uM
T8 construct: purchased DiscoverX Co. (contract measurement) scanMAX Kinase assay panel
T8 sequence (P51957 whole entry): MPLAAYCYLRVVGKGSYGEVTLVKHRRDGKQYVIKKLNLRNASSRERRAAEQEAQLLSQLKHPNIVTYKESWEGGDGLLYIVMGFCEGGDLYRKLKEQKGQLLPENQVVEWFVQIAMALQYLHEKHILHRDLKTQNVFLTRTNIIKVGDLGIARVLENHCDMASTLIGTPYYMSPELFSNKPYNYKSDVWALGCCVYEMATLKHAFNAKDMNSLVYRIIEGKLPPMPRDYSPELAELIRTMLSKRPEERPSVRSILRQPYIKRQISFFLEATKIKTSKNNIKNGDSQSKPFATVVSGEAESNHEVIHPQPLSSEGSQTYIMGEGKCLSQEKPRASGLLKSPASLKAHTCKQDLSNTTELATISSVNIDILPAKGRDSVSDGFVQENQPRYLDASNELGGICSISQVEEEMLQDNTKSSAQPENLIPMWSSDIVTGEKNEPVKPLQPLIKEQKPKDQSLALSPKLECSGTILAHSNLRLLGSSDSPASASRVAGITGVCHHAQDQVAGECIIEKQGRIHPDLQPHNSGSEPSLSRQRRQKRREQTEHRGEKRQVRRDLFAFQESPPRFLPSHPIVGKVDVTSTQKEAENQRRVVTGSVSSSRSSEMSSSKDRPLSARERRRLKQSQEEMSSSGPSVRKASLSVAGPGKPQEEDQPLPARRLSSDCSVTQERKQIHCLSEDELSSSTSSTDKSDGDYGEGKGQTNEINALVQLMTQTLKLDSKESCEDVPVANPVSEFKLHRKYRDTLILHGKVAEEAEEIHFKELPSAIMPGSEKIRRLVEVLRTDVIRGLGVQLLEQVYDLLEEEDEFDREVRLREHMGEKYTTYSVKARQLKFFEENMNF
In short: as §1

[9] = target: T9, kinases of the scanMAX Kinase assay panel (Homo sapiens, UniProt P53779); conditions: JNK3; 1 uM
T9 construct: purchased DiscoverX Co. (contract measurement) scanMAX Kinase assay panel
In short: as §1

[10] = target: T10, kinases of the scanMAX Kinase assay panel (Homo sapiens, UniProt Q14004); conditions: CDC2L5; 1 uM
T10 construct: purchased DiscoverX Co. (contract measurement) scanMAX Kinase assay panel
In short: as §1

[11] = target: T11, kinases of the scanMAX Kinase assay panel (Homo sapiens, UniProt Q16539); conditions: p38-alpha; 1 uM
T11 construct: purchased DiscoverX Co. (contract measurement) scanMAX Kinase assay panel
T11 sequence (Q16539 whole entry): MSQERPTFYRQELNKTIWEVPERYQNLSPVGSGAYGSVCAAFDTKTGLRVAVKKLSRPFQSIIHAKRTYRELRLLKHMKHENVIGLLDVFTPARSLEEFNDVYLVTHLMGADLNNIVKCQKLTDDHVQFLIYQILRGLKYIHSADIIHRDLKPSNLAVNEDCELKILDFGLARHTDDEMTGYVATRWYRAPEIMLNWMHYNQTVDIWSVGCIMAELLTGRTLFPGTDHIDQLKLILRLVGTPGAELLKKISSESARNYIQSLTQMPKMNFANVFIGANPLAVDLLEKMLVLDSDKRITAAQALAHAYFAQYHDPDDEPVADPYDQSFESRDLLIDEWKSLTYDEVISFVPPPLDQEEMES
In short: as §1

[12] = target: T12, kinases of the scanMAX Kinase assay panel (Homo sapiens, UniProt Q8IVW4); conditions: CDKL3; 1 uM
T12 construct: purchased DiscoverX Co. (contract measurement) scanMAX Kinase assay panel
T12 sequence (Q8IVW4 whole entry): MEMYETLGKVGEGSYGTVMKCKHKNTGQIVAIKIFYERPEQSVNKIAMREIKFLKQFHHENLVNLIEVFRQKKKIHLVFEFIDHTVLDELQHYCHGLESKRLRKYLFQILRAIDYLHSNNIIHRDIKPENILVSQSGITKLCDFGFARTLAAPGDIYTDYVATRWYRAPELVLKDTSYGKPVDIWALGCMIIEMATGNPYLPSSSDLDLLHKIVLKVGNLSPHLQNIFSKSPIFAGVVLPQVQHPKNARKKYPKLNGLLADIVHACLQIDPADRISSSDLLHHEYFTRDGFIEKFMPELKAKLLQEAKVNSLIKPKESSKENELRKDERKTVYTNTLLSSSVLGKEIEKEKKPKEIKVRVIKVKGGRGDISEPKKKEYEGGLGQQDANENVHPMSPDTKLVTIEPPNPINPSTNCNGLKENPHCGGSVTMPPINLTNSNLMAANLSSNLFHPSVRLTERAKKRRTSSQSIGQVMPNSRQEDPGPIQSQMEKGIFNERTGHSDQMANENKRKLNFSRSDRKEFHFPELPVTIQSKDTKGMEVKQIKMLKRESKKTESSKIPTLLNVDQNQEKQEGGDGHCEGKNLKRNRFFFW
In short: as §1

[13] = target: T13, kinases of the scanMAX Kinase assay panel (Homo sapiens, UniProt Q8NEB9); conditions: kinase VPS34; 1 uM in DMSO
T13 construct: purchased DiscoverX Co. (contract measurement) scanMAX Kinase assay panel
In short: as §1

[14] = target: T14, kinases of the scanMAX Kinase assay panel (Homo sapiens, UniProt Q8NEV4); conditions: MYO3A; 1 uM
T14 construct: purchased DiscoverX Co. (contract measurement) scanMAX Kinase assay panel
In short: as §1

[15] = target: T15, kinases of the scanMAX Kinase assay panel (Homo sapiens, UniProt Q9Y3S1); conditions: kinase WNK2; 1 uM in DMSO
T15 construct: purchased DiscoverX Co. (contract measurement) scanMAX Kinase assay panel
T15 sequence (Q9Y3S1 whole entry): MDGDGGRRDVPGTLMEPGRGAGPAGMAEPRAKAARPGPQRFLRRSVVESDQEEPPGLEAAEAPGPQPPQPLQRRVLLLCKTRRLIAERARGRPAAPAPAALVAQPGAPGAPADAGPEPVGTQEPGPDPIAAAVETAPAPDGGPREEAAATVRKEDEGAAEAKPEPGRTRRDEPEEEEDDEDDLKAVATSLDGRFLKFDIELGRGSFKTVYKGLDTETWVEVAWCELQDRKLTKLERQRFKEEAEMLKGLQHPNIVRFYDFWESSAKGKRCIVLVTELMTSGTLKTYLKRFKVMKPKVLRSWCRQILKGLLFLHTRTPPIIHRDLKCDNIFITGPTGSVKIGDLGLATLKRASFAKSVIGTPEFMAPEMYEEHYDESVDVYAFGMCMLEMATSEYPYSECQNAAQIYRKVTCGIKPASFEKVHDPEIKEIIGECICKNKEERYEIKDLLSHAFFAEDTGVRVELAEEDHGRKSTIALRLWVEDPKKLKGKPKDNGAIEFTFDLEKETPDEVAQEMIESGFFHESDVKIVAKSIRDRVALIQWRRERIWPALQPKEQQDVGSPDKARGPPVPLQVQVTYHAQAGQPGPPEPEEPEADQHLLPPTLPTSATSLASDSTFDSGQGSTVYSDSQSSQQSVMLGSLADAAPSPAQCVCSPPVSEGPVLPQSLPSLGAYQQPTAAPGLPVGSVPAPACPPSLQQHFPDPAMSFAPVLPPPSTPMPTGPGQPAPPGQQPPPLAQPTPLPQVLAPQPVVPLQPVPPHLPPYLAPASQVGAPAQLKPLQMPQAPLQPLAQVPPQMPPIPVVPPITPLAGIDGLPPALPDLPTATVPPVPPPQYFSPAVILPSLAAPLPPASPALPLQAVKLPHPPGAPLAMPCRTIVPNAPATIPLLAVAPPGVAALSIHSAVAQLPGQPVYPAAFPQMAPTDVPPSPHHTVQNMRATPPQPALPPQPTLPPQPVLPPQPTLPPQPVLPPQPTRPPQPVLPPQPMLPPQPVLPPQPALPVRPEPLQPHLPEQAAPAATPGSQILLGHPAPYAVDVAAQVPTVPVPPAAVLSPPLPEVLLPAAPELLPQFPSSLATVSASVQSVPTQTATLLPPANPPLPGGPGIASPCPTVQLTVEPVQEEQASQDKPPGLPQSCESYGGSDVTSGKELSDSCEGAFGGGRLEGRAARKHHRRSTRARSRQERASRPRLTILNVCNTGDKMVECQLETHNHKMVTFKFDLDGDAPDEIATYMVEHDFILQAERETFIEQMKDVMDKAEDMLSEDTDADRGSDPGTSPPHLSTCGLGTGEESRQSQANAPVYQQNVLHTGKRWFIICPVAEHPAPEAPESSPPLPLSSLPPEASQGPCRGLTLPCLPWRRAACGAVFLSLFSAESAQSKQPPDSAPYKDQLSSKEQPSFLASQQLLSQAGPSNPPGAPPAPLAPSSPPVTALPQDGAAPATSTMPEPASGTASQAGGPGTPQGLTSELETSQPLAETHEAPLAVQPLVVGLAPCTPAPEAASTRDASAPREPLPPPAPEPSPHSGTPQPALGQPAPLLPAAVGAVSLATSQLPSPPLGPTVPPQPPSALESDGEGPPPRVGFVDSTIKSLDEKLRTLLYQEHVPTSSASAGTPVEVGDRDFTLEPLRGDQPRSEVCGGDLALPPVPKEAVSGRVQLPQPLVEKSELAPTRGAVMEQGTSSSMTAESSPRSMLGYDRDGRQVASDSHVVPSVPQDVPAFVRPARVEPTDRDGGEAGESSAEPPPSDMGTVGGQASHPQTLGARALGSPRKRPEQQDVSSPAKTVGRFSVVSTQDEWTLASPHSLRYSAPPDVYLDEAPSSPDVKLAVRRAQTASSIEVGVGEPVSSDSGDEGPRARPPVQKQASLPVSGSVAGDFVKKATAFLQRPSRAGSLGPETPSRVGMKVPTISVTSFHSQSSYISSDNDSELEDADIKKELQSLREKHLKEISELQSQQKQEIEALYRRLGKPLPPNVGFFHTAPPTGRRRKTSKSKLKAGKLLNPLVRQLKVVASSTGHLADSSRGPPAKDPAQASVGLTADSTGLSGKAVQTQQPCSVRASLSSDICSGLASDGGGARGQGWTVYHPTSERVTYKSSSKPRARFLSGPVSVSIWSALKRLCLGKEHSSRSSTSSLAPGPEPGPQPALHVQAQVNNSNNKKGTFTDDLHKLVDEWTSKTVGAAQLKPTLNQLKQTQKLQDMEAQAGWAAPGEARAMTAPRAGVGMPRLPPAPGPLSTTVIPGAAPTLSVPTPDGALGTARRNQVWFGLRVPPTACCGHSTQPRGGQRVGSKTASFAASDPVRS
In short: as §1

Compound | remaining binding at 1 µM [1] [%] | remaining binding at 1 µM [2] [%] | remaining binding at 1 µM ([3]; ABL1(Q252H)-nonphosphorylated) [%] | remaining binding at 1 µM ([3]; ABL1(Q252H)-phosphorylated) [%] | remaining binding at 1 µM [4] [%] | remaining binding at 1 µM [5] [%] | remaining binding at 1 µM [6] [%] | remaining binding at 1 µM [7] [%] | remaining binding at 1 µM [8] [%] | remaining binding at 1 µM [9] [%] | remaining binding at 1 µM [10] [%] | remaining binding at 1 µM [11] [%] | remaining binding at 1 µM [12] [%] | remaining binding at 1 µM [13] [%] | remaining binding at 1 µM [14] [%] | remaining binding at 1 µM [15] [%]
CNc1nc(Nc2ccc(C(=O)N3CCOCC3)cc2OC)nc2[nH]cc(C#N)c12 [Example 1, 2-((2-methoxy-4-(morpholine-4-carbonyl)phenyl)amino)-4-(methylamino)-7H-pyrrolo[2,3-d]pyrimidine-5-carbonitrile] | 95 | 56 | 57 | 100 | 85 | 61 | 15 | 95 | 75 | 0 | 82 | 94 | 93 | 84 | 68 | 52
CC1(Nc2nc(Nc3cnn([C@H]4CCN(C5COC5)C[C@@H]4F)c3Cl)nc3[nH]cc(C#N)c23)CC1 [Example 52, 2-((5-chloro-1-((3S,4S)-3-fluoro-1-(oxetane-3-yl)piperidine-4-yl)-1H-pyrazole-4-yl)amino)((1-methylcyclopropyl)amino)-7H-pyrrolo[2,3-d]pyrimidine-5-carbonitrile] | 74 | 11 | 1.1 | 0.25 | 57 | 6.5 | 9.7 | 100 | 100 | 0 | 97 | 91 | 100 | 100 | 3.9 | 56
CCNc1nc(Nc2ccc(C(=O)N3CCC(N4CCOCC4)CC3)cc2OC)nc2[nH]cc(C(F)(F)F)c12 [Example 104, (4-((4-(ethylamino)-5-(trifluoromethyl)-7H-pyrrolo[2,3-d]pyrimidine-2-yl)amino)-3-methoxyphenyl)(4-morpholinopiperidine-1-yl)methanone] | 100 | 92 | 99 | 82 | 80 | 3.2 | 88 | 92 | 100 | 18 | 100 | 96 | 100 | 78 | 78 | 100
